Source: PMC7793531 (International Journal of Molecular Sciences, 2020)
Entries after “also recorded” stand apart in the source; their conditions may differ. Starred links: 1 amine or outer side, 2 acyl side, 3 side chain; linkers in the order of their positions; H or OH if unused. Non-standard residues stand in square brackets, D forms with d. Residues, ends and D or L forms follow the SMILES beside them. Groups on a side chain read outwards from the residue. ξ: configuration not given here. *: point of attachment. Oic(3aξ,7aξ) = O=C(O)[C@@H]1CC2CCCCC2N1; hArg = N=C(N)NCCCC[C@H](N)C(=O)O; X1 = N=C(N)NCCCC[C@H](N)CN*; X3 = N=C(N)NCCC[C@H](N)CN*; X2 = N=C(N)NCC[C@H](N)CN*; Orn = NCCC[C@H](N)C(=O)O; Dab = NCC[C@H](N)C(=O)O; CO = O=C([*:1])[*:2]

target: T1, VEGF-A165/NRP-1 complex (Homo sapiens, UniProt O14786); test: Competitive ELISA-like assay, inhibition of bt-VEGF-A165 binding to immobilized NRP-1; conditions: recombinant human NRP-1, bt-VEGF-A165, chemiluminescence; read-out: IC50, VEGF-A165/NRP-1 complex inhibitory effect
T1 construct: purchased R&D Systems
T1 sequence (O14786 22-641 limits assumed): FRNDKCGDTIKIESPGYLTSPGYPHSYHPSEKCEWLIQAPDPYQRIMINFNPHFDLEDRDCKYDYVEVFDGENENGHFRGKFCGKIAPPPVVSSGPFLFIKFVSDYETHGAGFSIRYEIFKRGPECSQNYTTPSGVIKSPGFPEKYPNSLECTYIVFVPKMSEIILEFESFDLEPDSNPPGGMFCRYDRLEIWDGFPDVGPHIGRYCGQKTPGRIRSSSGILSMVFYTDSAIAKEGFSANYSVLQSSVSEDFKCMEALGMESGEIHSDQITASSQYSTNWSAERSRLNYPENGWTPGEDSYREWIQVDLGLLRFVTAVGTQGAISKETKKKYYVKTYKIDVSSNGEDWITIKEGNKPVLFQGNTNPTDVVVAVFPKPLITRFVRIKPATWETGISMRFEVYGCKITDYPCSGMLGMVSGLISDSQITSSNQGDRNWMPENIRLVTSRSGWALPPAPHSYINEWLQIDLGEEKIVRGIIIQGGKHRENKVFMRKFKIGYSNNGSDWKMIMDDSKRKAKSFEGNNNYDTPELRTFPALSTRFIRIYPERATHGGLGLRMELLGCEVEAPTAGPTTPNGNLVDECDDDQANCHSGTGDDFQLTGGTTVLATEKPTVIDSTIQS
Experimental: Inhibitory activity of urea–peptide hybrids against VEGF-A165/NRP-1 complex formation was assessed with a screening ELISA-like assay. NRP-1 was immobilized on microplate wells by simple adsorption and urea–peptide hybrids competed for NRP-1 with biotinylated VEGF-A165 (bt-VEGF-A165). The amount of receptor bound bt-VEGF-A165 was visualized by its interaction with the streptavidin–horseradish peroxidase conjugate (strep-HRP) and the chemiluminescent substrate. The first analyzed group of compounds were analogues 1–3 with the urea bond between L1 and L2. […] The best hybrid in this group was compound 3, which had Lys^U (gDab) branching (where “g” corresponds to guanidinium group), but its IC50 value decreased only 2-fold. Therefore, we assume that no additional interactions between urea bond and the surface of the protein occurred. […] In the case of urea–peptide hybrids, the urea bond might be capable of forming additional hydrogen bonds with protein residues on the surface of NRP-1. The affinity of compounds may conceivably be affected by the colocation of the urea bond and the free amino group of hArg in the branching. In addition, for compounds 4–6, we can observe that decreasing the distance between the free amino group in the main chain and the urea bond in the branching has a positive effect on compounds’ affinity for NRP-1.
This method was previously described for NRP-1 [44, 45, 46]. Briefly, overnight coating at 4 °C of the flat bottom surface of a 96-well plate with 100 μL (200 ng/well) recombinant human NRP-1, NRP-2, VEGFR-1 or VEGFR-2 was followed by non-specific interactions blocking using 0.5% bovine serum albumin (BSA) in PBS. Next, 50 µL of urea–peptide hybrid in PBS and 50 µL (400 ng/mL) of human (bt)-VEGF-A165 in PBS containing 4 µg/mL of heparin were added respectively. Plates were incubated for 2 h at RT, and then washed and treated with streptavidin-horseradish peroxidase conjugate in PBS (1:8000). Next, 100 µL chemiluminescent substrate was added, and luminescence was quantified using Tecan Infinite F200Pro microplate reader (Männedorf, Switzerland). In a positive control (P) only (bt)-VEGF-A165 was present in wells. Not coated by receptor wells were treated as a negative control (N). Percentages of inhibition were calculated by the following formula:100% − [[(S − N)/(P − N)]∙100%](1) where S is the signal intensity measured in wells with urea–peptide hybrid. The IC50 of each urea–peptide hybrid was calculated using the nonlinear regression function with GraphPad Prism Version-5.01 (GraphPad Software, San Diego, CA, USA). Data are presented as log (inhibitor) versus normalized response-variable slope (Figure S16). Data are the means ± SEMs of two or three independent experiments, each performed in triplicate.

Row | Molecule | IC50
1 | N=C(N)NCCCC[C@H](N)C(=O)NCC[C@H](N)CNC(=O)N[C@@H](CCN)C(=O)N1C2CCCCC2C[C@H]1C(=O)N[C@@H](CCCNC(=N)N)C(=O)O (some centres unmarked) [Compound 1] | 1800 nM
2 | N=C(N)NCCC[C@H](NC(=O)[C@@H]1CC2CCCCC2N1C(=O)[C@H](CCN)NC(=O)NC[C@@H](N)CCCNC(=O)[C@@H](N)CCCNC(=N)N)C(=O)O (some centres unmarked) [Compound 2] | 2100 nM
3 | N=C(N)NCCC[C@H](NC(=O)[C@@H]1CC2CCCCC2N1C(=O)[C@H](CCN)NC(=O)NC[C@@H](N)CCCCNC(=O)[C@@H](N)CCNC(=N)N)C(=O)O (some centres unmarked) [Compound 3] | 1200 nM
4 | N=C(N)NCCC[C@H](NC(=O)[C@@H]1CC2CCCCC2N1C(=O)[C@H](CCN)NC(=O)[C@@H](N)CCCCNC(=O)NC[C@@H](N)CCNC(=N)N)C(=O)O (some centres unmarked) [Compound 4] (H-K([CO-X2])[Dab][Oic(3aξ,7aξ)]R-OH) | 490 nM
5 | N=C(N)NCCC[C@H](N)CNC(=O)NCCC[C@H](N)C(=O)N[C@@H](CCN)C(=O)N1C2CCCCC2C[C@H]1C(=O)N[C@@H](CCCNC(=N)N)C(=O)O (some centres unmarked) [Compound 5] (H-[Orn]([CO-X3])[Dab][Oic(3aξ,7aξ)]R-OH) | 360 nM
6 | N=C(N)NCCC[C@H](N)CNC(=O)NC[C@H](N)CNC(=O)N[C@@H](CCN)C(=O)N1C2CCCCC2C[C@H]1C(=O)N[C@@H](CCCNC(=N)N)C(=O)O (some centres unmarked) [Compound 7] | 2100 nM
7 | N=C(N)NCCC[C@H](NC(=O)[C@@H]1CC2CCCCC2N1C(=O)[C@H](CCN)NC(=O)NC[C@@H](N)CCNC(=O)NC[C@@H](N)CCNC(=N)N)C(=O)O (some centres unmarked) [Compound 8] | 2100 nM
8 | N=C(N)NCCC[C@H](NC(=O)[C@@H]1CC2CCCCC2N1C(=O)[C@H](CCN)NC(=O)NC[C@@H](N)CCCNC(=O)NC[C@@H](N)CNC(=N)N)C(=O)O (some centres unmarked) [Compound 9] | 1800 nM

system: not listed separately; test: In vitro enzymatic stability in human blood serum (LC-SWATH-MS); type: in vitro ADME; conditions: human blood serum (pooled from four healthy persons), 37 °C, after 24 h, read-out: initial substrate concentration remaining
Experimental: Rapid renal clearance and enzymatic degradation are classified as most important disadvantages of peptides as drugs. Covalent linkage to plasma proteins or chemical modifications, including amide bond modifications, might improve their half-lives. We performed proteolytic stability studies in human blood serum to investigate whether the introduction of urea bonds affected the half-lives of compounds from each of synthesized group of hybrids. Compounds 3, 6 and 7 were incubated with human serum at 37 °C. Samples were taken at different time intervals and analyzed using LC-SWATH-MS [88, 89, 90]. […] Hybrids 6 and 7 were stable toward enzymatic degradation, with 50% of each compound still being intact after 96 h (Figure 5). […] Overall, it can be concluded that the substitution of an amide bond with a urea bond has a positive effect on the proteolytic stability of the examined inhibitors.
The study was conducted in full accordance with ethical principles in accordance with the ICH E6 (R2) Guideline for Good Clinical Practice and the Code of Good Customs in Science developed by the Polish Academy of Sciences. Signed consent for using serum was obtained from volunteers. The Rector’s Commission for Ethics of Scientific Research with Human Participation, University of Warsaw, Warsaw, Poland gave the ethical approval (approval number 51/2020). Human blood from four healthy persons was directly drawn into evacuated tubes and left undisturbed at room temperature for 1 h to clot. Tubes were centrifuged at 2500× g for 10 min to prevent possible platelet activation. Serum was pipetted out of the blood collection tubes, pooled and collected in microtubes.
A degradation assay was adapted from a method described previously. Human blood serum was preactivated in Eppendorf ThermoMixer® Comfort (Hamburg, Germany) at 37 °C for 20 min (350 rpm). Next, 20 μL of aqueous urea–peptide hybrid stock solution was added to give ∼750 μg/mL final compound concentration, and incubation was continued. At selected time intervals, 50 μL of the mixture was collected and quenched by adding 200 μL of ACN:H2O:FA mixture (89:10:1, v:v:v). The obtained suspension was vortexed for 1 min (3000 min^−1) and centrifuged for 10 min in 4 °C (11,000× g). 100 μL of supernatant was collected and lyophilized. The samples reconstituted in 1 mL of 10 mM ammonium formate with 0.1% FA were subjected to LC-MS. Relative concentration at time intervals was calculated using peak area of either individual or most intense fragment of compound of interest. Analyst software version 1.7.1 was used for data acquisition, Peak View 2.2 and MultiQuant 2.1 (Sciex, ON) were used for data processing. Detailed analytical data can be found in Supplementary Materials (Figures S17–S45). […]

Row | Molecule | remaining at 24 h
9 | N=C(N)NCCC[C@H](NC(=O)[C@@H]1CC2CCCCC2N1C(=O)[C@H](CCN)NC(=O)NC[C@@H](N)CCCCNC(=O)[C@@H](N)CCNC(=N)N)C(=O)O (some centres unmarked) [Compound 3] | ~25%

same assay, conditions: human blood serum (pooled from four healthy persons), 37 °C, after 96 h, read-out: compound still intact

Row | Molecule | remaining at 96 h
10 | N=C(N)NCCC[C@H](N)CNC(=O)NC[C@H](N)CNC(=O)N[C@@H](CCN)C(=O)N1C2CCCCC2C[C@H]1C(=O)N[C@@H](CCCNC(=N)N)C(=O)O (some centres unmarked) [Compound 7] | 50%

system: not listed separately; test: Human blood serum; conditions: 37 °C, up to 96 h

Row | Molecule | cleaved bond | not cleaved | fragment found
11 | H2N-DapU(ArgU)-Dab-Oic-Arg-OH | OicL3-ArgL4 | urea bonds remained intact within the monitored time of the experiment | 
12 | H2N-LysU(gDab)-Dab-Oic-Arg-OH | gDabL1'-Lys^UL1; also recorded: OicL3-ArgL4 | urea bonds remained intact within the monitored time of the experiment | C25H49N10O5+ (RT 5.43 min)
13 | H-Dab(hArg^U)Dab-Oic-Arg-OH (H-[Dab]([CO-X1])[Dab][Oic(3aξ,7aξ)]R-OH; SMILES N=C(N)NCCCC[C@H](N)CNC(=O)NCC[C@H](N)C(=O)N[C@@H](CCN)C(=O)N1C2CCCCC2C[C@H]1C(=O)N[C@@H](CCCNC(=N)N)C(=O)O) | OicL3-ArgL4; also recorded: DabL1-DabL2 | urea bonds remained intact within the monitored time of the experiment | C25H49N10O5+ (RT 5.36/5.72 min); also recorded: C25H46N10O4+ (RT 6.44/6.64 min); also recorded: C19H36N7O4+ (RT 3.53 min); also recorded: C12H27N7O3+ (RT 1.21 min)
14 | Lys(hArg)-Dab-Oic-Arg (H-K(hArg)[Dab][Oic(3aξ,7aξ)]R-OH) | hArgL1'-LysL1, major; also recorded: LysL1-DabL2; also recorded: OicL3-ArgL4 |  | C25H48N9O5+ (RT 2.87 min); also recorded: C19H36N7O4+ (RT 3.54 min)
